Laboratory results as given in PubChem BioAssay (NCI).
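Tested at 5 concentrations; 48 h exposure; 96-well plates; endpoints linearly interpolated, else capped at highest concentration. GI50 = concentration required for 50% inhibition of growth. TGI: total growth inhibition.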

What was measured:
Assay in all cases: growth of human tumour cells (NCI), 48 h
UO-31 renal = tested on: UO-31 renal
RPMI-8226 leukemia = tested on: RPMI-8226 leukemia
HCC-2998 colon = tested on: HCC-2998 colon
786-0 renal = tested on: 786-0 renal
PC-3 prostate = tested on: PC-3 prostate
COLO 205 colon = tested on: COLO 205 colon
HL-60(TB) leukemia = tested on: HL-60(TB) leukemia
NCI-H460 lung = tested on: NCI-H460 lung
T-47D breast = tested on: T-47D breast
HOP-62 NSCLC = tested on: HOP-62 NSCLC
UACC-257 melanoma = tested on: UACC-257 melanoma
IGROV1 ovarian = tested on: IGROV1 ovarian
SN12C renal = tested on: SN12C renal
RXF 393 renal = tested on: RXF 393 renal
DU-145 prostate = tested on: DU-145 prostate
NCI/ADR-RES ovarian = tested on: NCI/ADR-RES ovarian
SK-OV-3 ovarian = tested on: SK-OV-3 ovarian
MDA-MB-435 = tested on: MDA-MB-435
OVCAR-4 ovarian = tested on: OVCAR-4 ovarian
SR leukemia = tested on: SR leukemia
SNB-19 CNS = tested on: SNB-19 CNS
SF-539 CNS = tested on: SF-539 CNS
UACC-62 melanoma = tested on: UACC-62 melanoma
SNB-75 CNS = tested on: SNB-75 CNS
NCI-H522 lung = tested on: NCI-H522 lung
A549 NSCLC = tested on: A549 NSCLC
K-562 leukemia = tested on: K-562 leukemia
BT-549 breast = tested on: BT-549 breast
OVCAR-3 ovarian = tested on: OVCAR-3 ovarian
M14 melanoma = tested on: M14 melanoma
OVCAR-8 ovarian = tested on: OVCAR-8 ovarian
OVCAR-5 ovarian = tested on: OVCAR-5 ovarian
MOLT-4 leukemia = tested on: MOLT-4 leukemia
SK-MEL-5 melanoma = tested on: SK-MEL-5 melanoma
HCT-116 colon = tested on: HCT-116 colon
HT29 colon = tested on: HT29 colon
EKVX NSCLC = tested on: EKVX NSCLC
MALME-3M melanoma = tested on: MALME-3M melanoma
SF-268 CNS = tested on: SF-268 CNS
HS 578T breast = tested on: HS 578T breast
KM12 colon = tested on: KM12 colon
MDA-MB-231 breast = tested on: MDA-MB-231 breast
NCI-H23 lung = tested on: NCI-H23 lung
MCF7 breast = tested on: MCF7 breast
ACHN renal = tested on: ACHN renal
CCRF-CEM leukemia = tested on: CCRF-CEM leukemia
SK-MEL-28 melanoma = tested on: SK-MEL-28 melanoma
SF-295 CNS = tested on: SF-295 CNS
HOP-92 NSCLC = tested on: HOP-92 NSCLC
LOX IMVI melanoma = tested on: LOX IMVI melanoma
A498 renal = tested on: A498 renal
CAKI-1 renal = tested on: CAKI-1 renal
SK-MEL-2 melanoma = tested on: SK-MEL-2 melanoma
NCI-H226 lung = tested on: NCI-H226 lung
SW-620 colon = tested on: SW-620 colon

SMILES: O=C1c2ccc3c4c(ccc(c24)C(=O)N1CCCNCc1ccccc1F)C(=O)N(CCCNCc1ccccc1F)C3=O
- GI50 (UO-31 renal): 194 nM
- TGI (UO-31 renal): 468 nM
- GI50 (RPMI-8226 leukemia): 272 nM
- TGI (RPMI-8226 leukemia): 818 nM
- GI50 (HCC-2998 colon): 158 nM
- TGI (HCC-2998 colon): 312 nM
- GI50 (786-0 renal): 217 nM
- TGI (786-0 renal): 587 nM
- GI50 (PC-3 prostate): 228 nM
- TGI (PC-3 prostate): 658 nM
- GI50 (COLO 205 colon): 86.3 nM
- TGI (COLO 205 colon): 208 nM
- GI50 (HL-60(TB) leukemia): 239 nM
- TGI (HL-60(TB) leukemia): 542 nM
- GI50 (NCI-H460 lung): 154 nM
- TGI (NCI-H460 lung): 504 nM
- GI50 (T-47D breast): 194 nM
- TGI (T-47D breast): 417 nM
- GI50 (HOP-62 NSCLC): 151 nM
- TGI (HOP-62 NSCLC): 331 nM
- GI50 (UACC-257 melanoma): 172 nM
- TGI (UACC-257 melanoma): 340 nM
- GI50 (IGROV1 ovarian): 180 nM
- TGI (IGROV1 ovarian): 543 nM
- GI50 (SN12C renal): 144 nM
- TGI (SN12C renal): 296 nM
- GI50 (RXF 393 renal): 138 nM
- TGI (RXF 393 renal): 274 nM
- GI50 (DU-145 prostate): 154 nM
- TGI (DU-145 prostate): 287 nM
- GI50 (NCI/ADR-RES ovarian): 206 nM
- TGI (NCI/ADR-RES ovarian): 726 nM
- GI50 (SK-OV-3 ovarian): 249 nM
- TGI (SK-OV-3 ovarian): 635 nM
- GI50 (MDA-MB-435): 175 nM
- TGI (MDA-MB-435): 359 nM
- GI50 (OVCAR-4 ovarian): 109 nM
- TGI (OVCAR-4 ovarian): 237 nM
- GI50 (SR leukemia): 123 nM
- TGI (SR leukemia): 614 nM
- GI50 (SNB-19 CNS): 136 nM
- TGI (SNB-19 CNS): 275 nM
- GI50 (SF-539 CNS): 208 nM
- TGI (SF-539 CNS): 464 nM
- GI50 (UACC-62 melanoma): 179 nM
- TGI (UACC-62 melanoma): 335 nM
- GI50 (SNB-75 CNS): 164 nM
- TGI (SNB-75 CNS): 320 nM
- GI50 (NCI-H522 lung): 154 nM
- TGI (NCI-H522 lung): 298 nM
- GI50 (A549 NSCLC): 107 nM
- TGI (A549 NSCLC): 294 nM
- GI50 (K-562 leukemia): 209 nM
- TGI (K-562 leukemia): 5520 nM
- GI50 (BT-549 breast): 317 nM
- TGI (BT-549 breast): 767 nM
- GI50 (OVCAR-3 ovarian): 189 nM
- TGI (OVCAR-3 ovarian): 557 nM
- GI50 (M14 melanoma): 152 nM
- TGI (M14 melanoma): 293 nM
- GI50 (OVCAR-8 ovarian): 95.4 nM
- TGI (OVCAR-8 ovarian): 422 nM
- GI50 (OVCAR-5 ovarian): 200 nM
- TGI (OVCAR-5 ovarian): 449 nM
- GI50 (MOLT-4 leukemia): 144 nM
- TGI (MOLT-4 leukemia): 544 nM
- GI50 (SK-MEL-5 melanoma): 163 nM
- TGI (SK-MEL-5 melanoma): 299 nM
- GI50 (HCT-116 colon): 67.6 nM
- TGI (HCT-116 colon): 303 nM
- GI50 (HT29 colon): 49.4 nM
- TGI (HT29 colon): 203 nM
- GI50 (EKVX NSCLC): 171 nM
- TGI (EKVX NSCLC): 331 nM
- GI50 (MALME-3M melanoma): 151 nM
- TGI (MALME-3M melanoma): 299 nM
- GI50 (SF-268 CNS): 208 nM
- TGI (SF-268 CNS): 534 nM
- GI50 (HS 578T breast): 523 nM
- TGI (HS 578T breast): 2860 nM
- GI50 (KM12 colon): 127 nM
- TGI (KM12 colon): 285 nM
- GI50 (MDA-MB-231 breast): 250 nM
- TGI (MDA-MB-231 breast): 717 nM
- GI50 (NCI-H23 lung): 171 nM
- TGI (NCI-H23 lung): 369 nM
- GI50 (MCF7 breast): 109 nM
- TGI (MCF7 breast): 359 nM
- GI50 (ACHN renal): 127 nM
- TGI (ACHN renal): 563 nM
- GI50 (CCRF-CEM leukemia): 166 nM
- GI50 (SK-MEL-28 melanoma): 210 nM
- TGI (SK-MEL-28 melanoma): 465 nM
- GI50 (SF-295 CNS): 176 nM
- TGI (SF-295 CNS): 409 nM
- GI50 (HOP-92 NSCLC): 238 nM
- TGI (HOP-92 NSCLC): 566 nM
- GI50 (LOX IMVI melanoma): 121 nM
- TGI (LOX IMVI melanoma): 317 nM
- GI50 (A498 renal): 310 nM
- TGI (A498 renal): 1720 nM
- GI50 (CAKI-1 renal): 187 nM
- TGI (CAKI-1 renal): 495 nM
- GI50 (SK-MEL-2 melanoma): 192 nM
- TGI (SK-MEL-2 melanoma): 366 nM
- GI50 (NCI-H226 lung): 210 nM
- TGI (NCI-H226 lung): 482 nM
- GI50 (SW-620 colon): 75.4 nM
- TGI (SW-620 colon): 274 nM
